This test concerns Nrf2 (NQO1 activity in BEAS-2B cells). The test is described as follows: BEAS-2B NQO1 MTT Assay. As to conditions: Homo sapiens, 48 hours, NQO1 specific activity induction, read-out: EC50. Type of test: cell-based. An excerpt:
NAD(P)H:quinone oxidoreductase 1 (NQO1), also called DT diaphorase, is a homodimeric FAD-containing enzyme that catalyzes obligatory NAD(P)H-dependent two-electron reductions of quinones and protects cells against the toxic and neoplastic effects of free radicals and reactive oxygen species arising from one-electron reductions. The transcription of NQO1 is finely regulated by Nrf2, and thus NQO1 activity is a good marker for Nrf2 activation. On day one, frozen BEAS-2B cells (ATCC) were thawed in a water bath, counted, and re-suspended at a concentration of 250,000 cells/mL. Fifty microliters of cells were plated in 384 well black clear-bottomed plates. Plates were incubated at 37° C., 5% CO2 overnight. On day two, plates were centrifuged and 50 nL of compound or controls were added to the cells. Plates were then incubated at 37° C., 5% CO2 for 48 hours. On day four, medium was aspirated from the plate and crude cell lysates were made by adding 13 μL of 1× Cell Signalling Technologies lysis buffer with 1 Complete, Mini, EDTA-free Protease Inhibitor Tablet (Roche) for each 10 mL of lysis buffer. After lysis plates were incubated for 20 minutes at room temperature. Two microliters of lysate were removed for use in Cell Titer Glo assay (Promega) and MTT cocktail was prepared (Prochaska et. al. 1998) for measurement of NQO1 activity. Fifty microliters of MTT cocktail was added to each well, plate was centrifuged, and analyzed on an Envision plate reader (Perkin Elmer) using Absorbance 570 nm label for 30 minutes. Product formation was measured kinetically and the pEC50 of NQO1 specific activity induction was calculated by plotting the change in absorbance (Delta OD/min) versus the log of compound concentration followed by 3-parameter fitting.
EC50s<1 nM (+++++), EC50s 1 nM-10 nM (++++), EC50s 10 nM-100 nM (+++), EC50s 100 nM-1 μM (++), EC50s 1 μM-10 μM (+).

The structures appear in SMILES notation.

`CC[C@@H]1CN(Cc2cc([C@@H](CC(=O)O)c3ccc4c(nnn4C)c3C)ccc2C)Cc2nc(O)c(F)cc2O1` [Example 22, (R)-3-(1,4-dimethyl-1H-benzo[d][1,2,3]triazol-5-yl)-3-(3-(((R)-2-ethyl-8-fluoro-7-hydroxy-2,3-dihydropyrido[2,3-f][1,4]oxazepin-4(5H)-yl)methyl)-4-methylphenyl)propanoic acid]: the EC50 was in the range of 1 to 10 nM.

For `Cc1ccc([C@H](CC(=O)O)c2ccc3c(nnn3C)c2C)cc1CN1Cc2nc(O)ccc2O[C@H](C(C)C)C1` [Example 8, (S)-3-(1,4-dimethyl-1H-benzo[d][1,2,3]triazol-5-yl)-3-(3-(((R)-7-hydroxy-2-isopropyl-2,3-dihydropyrido[2,3-f][1,4]oxazepin-4(5H)-yl)methyl)-4-methylphenyl)propanoic acid], the EC50 is 10 to 100 nM.

With `CC[C@@H]1CN(Cc2cc([C@@H](c3ccc4c(nnn4C)c3C)C(C)(C)C(=O)O)ccc2C)Cc2nc(O)ccc2O1` [Example 13, (S)-3-(1,4-dimethyl-1H-benzo[d][1,2,3]triazol-5-yl)-3-(3-(((R)-2-ethyl-7-hydroxy-2,3-dihydropyrido[2,3-f][1,4]oxazepin-4(5H)-yl)methyl)-4-methylphenyl)-2,2-dimethyl propanoic acid], the EC50 is less than 1 nM.

`Cc1ccc([C@@H](c2ccc3c(nnn3C)c2C)C(C)(C)C(=O)O)cc1CN1CCOc2ccc(O)nc2C1` [Example 24, (S)-3-(1,4-dimethyl-1H-benzo[d][1,2,3]triazol-5-yl)-3-(3-((7-hydroxy-2,3-dihydropyrido[2,3-f][1,4]oxazepin-4(5H)-yl)methyl)-4-methylphenyl)-2,2-dimethylpropanoic acid]: the EC50 is 10 to 100 nM.

On to `CC[C@H]1CN(Cc2cc([C@H](CC(=O)O)c3ccc4c(nnn4C)c3C)ccc2C)Cc2nc(O)ccc2O1` [Example 12, (S)-3-(1,4-dimethyl-1H-benzo[d][1,2,3]triazol-5-yl)-3-(3-(((S)-2-ethyl-7-hydroxy-2,3-dihydropyrido[2,3-f][1,4]oxazepin-4(5H)-yl)methyl)-4-methylphenyl)propanoic acid], for which the EC50 was 1000 to 10000 nM.

Take `Cc1ccc([C@H](CC(=O)O)c2ccc3c(nnn3C)c2C)cc1CN1Cc2nc(O)ccc2O[C@@H](C(C)C)C1` [Example 9, (S)-3-(1,4-dimethyl-1H-benzo[d][1,2,3]triazol-5-yl)-3-(3-(((S)-7-hydroxy-2-isopropyl-2,3-dihydropyrido[2,3-f][1,4]oxazepin-4(5H)-yl)methyl)-4-methylphenyl)propanoic acid]: the EC50 fell in the range of 100 to 1000 nM.

On to `CC[C@H]1CN(Cc2cc([C@@H](c3ccc4c(nnn4C)c3C)C(C)(C)C(=O)O)ccc2C)Cc2nc(O)ccc2O1` [Example 18, (S)-3-(1,4-dimethyl-1H-benzo[d][1,2,3]triazol-5-yl)-3-(3-(((S)-2-ethyl-7-hydroxy-2,3-dihydropyrido[2,3-f][1,4]oxazepin-4(5H)-yl)methyl)-4-methylphenyl)-2,2-dimethylpropanoic acid], for which the EC50 is 1 to 10 nM.

For the compound `Cc1ccc([C@@H](CC(=O)O)c2ccc3c(nnn3C)c2C)cc1CN1Cc2nc(O)ccc2O[C@H](C(F)(F)F)C1` [Example 6, (R)-3-(1,4-dimethyl-1H-benzo[d][1,2,3]triazol-5-yl)-3-(3-(((S)-7-hydroxy-2-(trifluoromethyl)-2,3-dihydropyrido[2,3-f][1,4]oxazepin-4(5H)-yl)methyl)-4-methylphenyl)propanoic acidacid], the EC50 is 10 to 100 nM.

Consider `Cc1ccc([C@@H](CC(=O)O)c2ccc3c(nnn3C)c2C)cc1CN1Cc2nc(O)ccc2O[C@@H](C(F)(F)F)C1` [Example 20, (R)-3-(1,4-dimethyl-1H-benzo[d][1,2,3]triazol-5-yl)-3-(3-(((R)-7-hydroxy-2-(trifluoromethyl)-2,3-dihydropyrido[2,3-f][1,4]oxazepin-4(5H)-yl)methyl)-4-methylphenyl)propanoic acid], for which the EC50 fell in the range of 1000 to 10000 nM.

Consider `CC[C@@H]1CN(Cc2cc([C@H](CC(=O)O)c3ccc4c(nnn4C)c3C)ccc2C)Cc2nc(O)ccc2O1` [Example 10, (S)-3-(1,4-dimethyl-1H-benzo[d][1,2,3]triazol-5-yl)-3-(3-(((R)-2-ethyl-7-hydroxy-2,3-dihydropyrido[2,3-f][1,4]oxazepin-4(5H)-yl)methyl)-4-methylphenyl)propanoic acid], for which the EC50 lay within 10 to 100 nM.

Consider `Cc1ccc([C@@H](c2ccc3c(nnn3C)c2C)C(C)(C)C(=O)O)cc1CN1Cc2nc(O)ccc2O[C@H](C(F)(F)F)C1` [Example 19, (S)-3-(1,4-dimethyl-1H-benzo[d][1,2,3]triazol-5-yl)-3-(3-(((S)-7-hydroxy-2-(trifluoromethyl)-2,3-dihydropyrido[2,3-f][1,4]oxazepin-4(5H)-yl)methyl)-4-methylphenyl)-2,2-dimethylpropanoic acid], for which the EC50 was less than 1 nM.

As to `Cc1ccc([C@@H](CC(=O)O)c2ccc3c(nnn3C)c2C)cc1CN1Cc2nc(O)ccc2O[C@@H](C(C)C)C1` [Example 2, (R)-3-(1,4-dimethyl-1H-benzo[d][1,2,3]triazol-5-yl)-3-(3-(((S)-7-hydroxy-2-isopropyl-2,3-dihydropyrido[2,3-f][1,4]oxazepin-4(5H)-yl)methyl)-4-methylphenyl)propanoic acid], the EC50 lay within 100 to 1000 nM.

For `Cc1ccc([C@@H](c2ccc3c(nnn3C)c2C)C(C)(C)C(=O)O)cc1CN1Cc2nc(O)ccc2O[C@H](C)C1` [Example 14, (S)-3-(1,4-dimethyl-1H-benzo[d][1,2,3]triazol-5-yl)-3-(3-(((R)-7-hydroxy-2-methyl-2,3-dihydropyrido[2,3-f][1,4]oxazepin-4(5H)-yl)methyl)-4-methylphenyl)-2,2-dimethylpropanoic acid], the EC50 was 1 to 10 nM.

As to `CC[C@H]1CN(Cc2cc([C@@H](CC(=O)O)c3ccc4c(nnn4C)c3C)ccc2C)Cc2nc(O)ccc2O1` [Example 7, (R)-3-(1,4-dimethyl-1H-benzo[d][1,2,3]triazol-5-yl)-3-(3-(((S)-2-ethyl-7-hydroxy-2,3-dihydropyrido[2,3-f][1,4]oxazepin-4(5H)-yl)methyl)-4-methylphenyl)propanoic acid], the EC50 was in the range of 100 to 1000 nM.

Take `Cc1ccc([C@@H](c2ccc3c(nnn3C)c2C)C(C)(C)C(=O)O)cc1CN1Cc2nc(O)ccc2O[C@H](C(C)C)C1` [Example 15, (S)-3-(1,4-dimethyl-1H-benzo[d][1,2,3]triazol-5-yl)-3-(3-(((R)-7-hydroxy-2-isopropyl-2,3-dihydropyrido[2,3-f][1,4]oxazepin-4(5H)-yl)methyl)-4-methylphenyl)-2,2-dimethylpropanoic acid]: the EC50 is less than 1 nM.

Consider `Cc1ccc([C@H](CC(=O)O)c2ccc3c(nnn3C)c2C)cc1CN1Cc2nc(O)ccc2O[C@@H](C(F)(F)F)C1` [Example 28, (S)-3-(1,4-dimethyl-1H-benzo[d][1,2,3]triazol-5-yl)-3-(3-(((R)-7-hydroxy-2-(trifluoromethyl)-2,3-dihydropyrido[2,3-f][1,4]oxazepin-4(5H)-yl)methyl)-4-methylphenyl)propanoic acid], for which the EC50 was 1000 to 10000 nM.

For `Cc1ccc([C@H](CC(=O)O)c2ccc3c(nnn3C)c2C)cc1CN1Cc2nc(O)ccc2O[C@H](C(F)(F)F)C1` [Example 25, (S)-3-(1,4-dimethyl-1H-benzo[d][1,2,3]triazol-5-yl)-3-(3-(((S)-7-hydroxy-2-(trifluoromethyl)-2,3-dihydropyrido[2,3-f][1,4]oxazepin-4(5H)-yl)methyl)-4-methylphenyl)propanoic acid], the EC50 lay within 10 to 100 nM.

On to `CC[C@]1(C)CN(Cc2cc([C@@H](CC(=O)O)c3ccc4c(nnn4C)c3C)ccc2C)Cc2nc(O)ccc2O1` [Example 26, (R)-3-(1,4-dimethyl-1H-benzo[d][1,2,3]triazol-5-yl)-3-(3-(((R)-2-ethyl-7-hydroxy-2-methyl-2,3-dihydropyrido[2,3-f][1,4]oxazepin-4(5H)-yl)methyl)-4-methylphenyl)propanonic acid], for which the EC50 is 100 to 1000 nM.

As to `Cc1ccc([C@@H](c2ccc3c(nnn3C)c2C)C(C)(C)C(=O)O)cc1CN1Cc2nc(O)ccc2OC(C)(C)C1` [Example 17, (S)-3-(1,4-dimethyl-1H-benzo[d][1,2,3]triazol-5-yl)-3-(3-((7-hydroxy-2,2-dimethyl-2,3-dihydropyrido[2,3-f][1,4]oxazepin-4(5H)-yl)methyl)-4-methylphenyl)-2,2-dimethylpropanoic acid], the EC50 lay within 1 to 10 nM.

For the origin of these results see patent publication US11945826B2, “Hydroxypyridoxazepines as NRF2 activators” (GLAXOSMITHKLINE INTELLECTUAL PROPERTY DEVELOPMENT LIMITED, priority 2019, dated 2024).
